# From US7112565B2, “Stabilized pharmaceutical composition in lyophilized form” (Astellas Pharma Inc., priority 1999, dated 2006)
# Legend:
# Format in all cases: physicochemical
# [1] = Test Example 1: effect of stabilizer on stability of lyophilized compositions of Compound (II)
# Description: Effect of Stabilizer in Stabilizing Lyophilized Compositions of Compound (II)
# (§1) 10 mg of Compound (II) and, as a stabilizer, 100 mg of lactose or 9 mg of sodium chloride were dissolved completely in 1 ml of water. The resulting solutions were lyophilized and maintained at 70° C. in glass vials. Nine days after, the resulting compositions were tested on their appearance, the residual amount of Compound (II), and others. As a control, used was a solution of Compound (II) without any stabilizers.
# [2] = Test Example 4: stability of lyophilized compositions of 200 mg of lactose and Compound (II) in vial
# Description: as §1
# Stability of Lyophilized Compositions of 200 mg of Lactose and Compound (II) in Vial
# Tests were carried out in the same manner as in Test Example 1 except that 12.5 mg, 25 mg, 50 mg, 75 mg or 100 mg of Compound (II) were used with 200 mg of lactose. […] Regarding all the compositions, their appearance is a white mass, the time for reconstitutional dissolution was 15 seconds, and the color and the clarity of reconstituted solutions of the compositions were colorless and transparent.
# [3] = Test Example 2: stability with maltose, sucrose or glucose as stabilizer
# Description: as §1
# The similar tests were conducted in the same manner as in Test Example 1 except that 100 mg of maltose, 50 mg of sucrose or 50 mg of glucose was used as a stabilizer.
# [4] = Test Example 3: dependence of stability on the amount of lactose added; conditions: after 3 months at 40° C. and 75% humidity
# [5] = 10 mg Compound (II) + lactose (100 mg), 0 hours
# [6] = 10 mg Compound (II) + lactose (100 mg), after 9 days at 70° C.
# [7] = 10 mg Compound (II) + sodium chloride (9 mg), 0 hours
# [8] = 10 mg Compound (II) + sodium chloride (9 mg), after 9 days at 70° C.
# [9] = 10 mg Compound (II), control: nil stabilizer, 0 hours
# [10] = 10 mg Compound (II), control: nil stabilizer, after 9 days at 70° C.
# [11] = 12.5 mg Compound (II) + 200 mg lactose, 0 hours
# [12] = 12.5 mg Compound (II) + 200 mg lactose, after 3 months at 40° C. and 75% humidity
# [13] = 12.5 mg Compound (II) + 200 mg lactose, after 9 days at 70° C.
# [14] = 12.5 mg Compound (II) + 200 mg lactose, after 21 days at 60° C.
# [15] = 25 mg Compound (II) + 200 mg lactose, 0 hours
# [16] = 25 mg Compound (II) + 200 mg lactose, after 9 days at 70° C.
# [17] = 25 mg Compound (II) + 200 mg lactose, after 21 days at 60° C.
# [18] = 50 mg Compound (II) + 200 mg lactose, 0 hours
# [19] = 50 mg Compound (II) + 200 mg lactose, after 3 months at 40° C. and 75% humidity
# [20] = 50 mg Compound (II) + 200 mg lactose, after 9 days at 70° C.
# [21] = 50 mg Compound (II) + 200 mg lactose, after 21 days at 60° C.
# [22] = 75 mg Compound (II) + 200 mg lactose, 0 hours
# [23] = 75 mg Compound (II) + 200 mg lactose, after 3 months at 40° C. and 75% humidity
# [24] = 75 mg Compound (II) + 200 mg lactose, after 9 days at 70° C.
# [25] = 75 mg Compound (II) + 200 mg lactose, after 21 days at 60° C.
# [26] = 100 mg Compound (II) + 200 mg lactose, 0 hours
# [27] = 100 mg Compound (II) + 200 mg lactose, after 3 months at 40° C. and 75% humidity
# [28] = 100 mg Compound (II) + 200 mg lactose, after 9 days at 70° C.
# [29] = 100 mg Compound (II) + 200 mg lactose, after 21 days at 60° C.
# [30] = all compositions: 12.5 to 100 mg Compound (II) + 200 mg lactose
# [31] = 10 mg Compound (II) + glucose (50 mg), 0 hours
# [32] = 10 mg Compound (II) + glucose (50 mg), after 9 days at 70° C.
# [33] = 10 mg Compound (II) + maltose (100 mg), 0 hours
# [34] = 10 mg Compound (II) + maltose (100 mg), after 9 days at 70° C.
# [35] = 10 mg Compound (II) + sucrose (50 mg), 0 hours
# [36] = 10 mg Compound (II) + sucrose (50 mg), after 9 days at 70° C.
structure (smiles),measurement,setting,value
CCCCCOc1ccc(-c2cc(-c3ccc(C(=O)NC4CC(O)C(O)NC(=O)C5C(O)C(C)CN5C(=O)C(C(O)CC(N)=O)NC(=O)C(C(O)C(O)c5ccc(O)c(OS(=O)(=O)[O-])c5)NC(=O)C5CC(O)CN5C(=O)C(C(C)O)NC4=O)cc3)no2)cc1.[Na+] (stereo not drawn) [Compound (II)],Appearance,[1]; [5],White mass
same,Residual amount,[1]; [5],100.0%
same,Water content,[1]; [5],1.0%
same,pH of reconstituted solution in 1 ml of water,[1]; [5],6.4
same,Appearance,[1]; [6],White mass
same,Residual amount,[1]; [6],99.5%
same,pH of reconstituted solution in 1 ml of water,[1]; [6],6.1
same,Appearance,[1]; [7],White mass
same,Residual amount,[1]; [7],100.0%
same,Water content,[1]; [7],0.7%
same,pH of reconstituted solution in 1 ml of water,[1]; [7],6.7
same,Appearance,[1]; [8],White mass
same,Residual amount,[1]; [8],75.9%
same,pH of reconstituted solution in 1 ml of water,[1]; [8],6.3
same,Appearance,[1]; [9],White mass
same,Residual amount,[1]; [9],100.0%
same,Water content,[1]; [9],1.3%
same,pH of reconstituted solution in 1 ml of water,[1]; [9],7.1
same,Appearance,[1]; [10],Slightly yellow mass
same,Residual amount,[1]; [10],8.0%
same,pH of reconstituted solution in 1 ml of water,[1]; [10],2.7
same,Stability of lyophilized composition (conclusion from Tables 1 and 2),"[1]; with lactose, sodium chloride, maltose or sucrose, compared with no stabilizer or other stabilizers",significantly stable
same,Residual amount,[2]; [11],100.0%
same,Total impurities,[2]; [11],2.24%
same,Water content,[2]; [11],1.3%
same,pH of reconstituted solution in 5 ml of purified water,[2]; [11],6.63
same,Residual amount,[2]; [12],99.6%
same,Total impurities,[2]; [12],2.71%
same,pH of reconstituted solution in 5 ml of purified water,[2]; [12],6.08
same,Residual amount,[2]; [13],98.1%
same,Total impurities,[2]; [13],3.95%
same,pH of reconstituted solution in 5 ml of purified water,[2]; [13],6.15
same,Residual amount,[2]; [14],97.5%
same,Total impurities,[2]; [14],3.75%
same,pH of reconstituted solution in 5 ml of purified water,[2]; [14],6.31
same,Residual amount,[2]; [15],100.0%
same,Total impurities,[2]; [15],2.25%
same,Water content,[2]; [15],1.1%
same,pH of reconstituted solution in 5 ml of purified water,[2]; [15],6.37
same,Total impurities,"[2]; 25 mg Compound (II) + 200 mg lactose, after 3 months at 40° C. and 75% humidity",2.68%
same,Residual amount,[2]; [16],99.3%
same,Total impurities,[2]; [16],4.03%
same,pH of reconstituted solution in 5 ml of purified water,[2]; [16],6.07
same,Residual amount,[2]; [17],98.2%
same,Total impurities,[2]; [17],3.49%
same,pH of reconstituted solution in 5 ml of purified water,[2]; [17],6.11
same,Residual amount,[2]; [18],100.0%
same,Total impurities,[2]; [18],2.25%
same,Water content,[2]; [18],1.2%
same,pH of reconstituted solution in 5 ml of purified water,[2]; [18],6.26
same,Residual amount,[2]; [19],100.5%
same,Total impurities,[2]; [19],2.74%
same,pH of reconstituted solution in 5 ml of purified water,[2]; [19],6.00
same,Residual amount,[2]; [20],97.9%
same,Total impurities,[2]; [20],3.95%
same,pH of reconstituted solution in 5 ml of purified water,[2]; [20],5.99
same,Residual amount,[2]; [21],97.3%
same,pH of reconstituted solution in 5 ml of purified water,[2]; [21],6.00
same,Residual amount,[2]; [22],100.0%
same,Total impurities,[2]; [22],2.28%
same,Water content,[2]; [22],0.9%
same,pH of reconstituted solution in 5 ml of purified water,[2]; [22],6.13
same,Residual amount,[2]; [23],99.0%
same,Total impurities,[2]; [23],2.76%
same,pH of reconstituted solution in 5 ml of purified water,[2]; [23],6.04
same,Residual amount,[2]; [24],98.1%
same,Total impurities,[2]; [24],4.14%
same,pH of reconstituted solution in 5 ml of purified water,[2]; [24],5.95
same,Total impurities,[2]; [25],3.83%
same,pH of reconstituted solution in 5 ml of purified water,[2]; [25],5.96
same,Residual amount,[2]; [26],100.0%
same,Total impurities,[2]; [26],2.46%
same,Water content,[2]; [26],1.3%
same,pH of reconstituted solution in 5 ml of purified water,[2]; [26],6.03
same,Residual amount,[2]; [27],99.5%
same,Total impurities,[2]; [27],2.79%
same,Residual amount,[2]; [28],97.8%
same,Total impurities,[2]; [28],4.15%
same,pH of reconstituted solution in 5 ml of purified water,[2]; [28],5.92
same,Residual amount,[2]; [29],96.7%
same,Total impurities,[2]; [29],3.92%
same,pH of reconstituted solution in 5 ml of purified water,[2]; [29],5.88
same,Appearance,[2]; [30],white mass
same,Clarity of reconstituted solutions,[2]; [30],transparent
same,Color of reconstituted solutions,[2]; [30],colorless
same,Time for reconstitutional dissolution,[2]; [30],15 s
same,Appearance,[3]; [31],White melt
same,Residual amount,[3]; [31],100%
same,Water content,[3]; [31],4.3%
same,pH of reconstituted solution in 1 ml of water,[3]; [31],6.9
same,Appearance,[3]; [32],Brown melt
same,Residual amount,[3]; [32],1.1%
same,pH of reconstituted solution in 1 ml of water,[3]; [32],3.6
same,Appearance,[3]; [33],White mass
same,Residual amount,[3]; [33],100.0%
same,Water content,[3]; [33],0.9%
same,pH of reconstituted solution in 1 ml of water,[3]; [33],7.3
same,Appearance,[3]; [34],White mass
same,Residual amount,[3]; [34],98.6%
same,pH of reconstituted solution in 1 ml of water,[3]; [34],6.7
same,Appearance,[3]; [35],White mass
same,Residual amount,[3]; [35],100.0%
same,Water content,[3]; [35],1.1%
same,pH of reconstituted solution in 1 ml of water,[3]; [35],6.9
same,Appearance,[3]; [36],White melt
same,Residual amount,[3]; [36],82.4%
same,pH of reconstituted solution in 1 ml of water,[3]; [36],7.0
same,Appearance,[3]; [9],White mass
same,Residual amount,[3]; [9],100.0%
same,Water content,[3]; [9],3.3%
same,pH of reconstituted solution in 1 ml of water,[3]; [9],6.8
same,Appearance,[3]; [10],White mass
same,Residual amount,[3]; [10],<75.0%
same,pH of reconstituted solution in 1 ml of water,[3]; [10],5.4
same,Appearance,[4]; 10 mg Compound (II) + 20 mg lactose,White mass
same,pH of reconstituted solution in 1 ml of water,[4]; 10 mg Compound (II) + 50 mg lactose,6.26
same,Clarity of reconstituted solution in 1 ml of water,[4]; 10 mg Compound (II) + 100 mg lactose,Clear
